Experimental findings from publication PMC10507085, “Pharmacological inhibition of TBK1/IKKε blunts immunopathology in a murine model of SARS-CoV-2 infection” (Nature Communications, 2023) are described below.

For one assay, the target named is TLK2 (Homo sapiens, UniProt Q86UE8). The assay can be described thus: biochemical. Details: KINOMEscan competition binding, DNA-tagged kinase against immobilised ligand, qPCR read-out. The note with it: read-out: Percent Control.
The target in another assay is TEC (Homo sapiens, UniProt P42680). The assay can be described thus: biochemical. The arrangement: KINOMEscan competition binding, DNA-tagged kinase against immobilised ligand, qPCR read-out. The note with it: read-out: Percent Control.
The next assay addresses ITK (Homo sapiens, UniProt Q08881). Put plainly: biochemical. Details: KINOMEscan competition binding, DNA-tagged kinase against immobilised ligand, qPCR read-out. The following applies: read-out: Percent Control.
The next assay deals with IRAK1 (Homo sapiens, UniProt P51617). The assay can be described thus: biochemical. The arrangement: KINOMEscan competition binding, DNA-tagged kinase against immobilised ligand, qPCR read-out. The note with it: read-out: Percent Control.
For another assay, the target named is DCLK3 (Homo sapiens, UniProt Q9C098). Put plainly: biochemical. The note with it: read-out: Percent Control. The arrangement: KINOMEscan competition binding, DNA-tagged kinase against immobilised ligand, qPCR read-out.
The target in the next assay is PAK1 (Homo sapiens, UniProt Q13153). The assay can be described thus: biochemical. The following applies: read-out: Percent Control. The arrangement: KINOMEscan competition binding, DNA-tagged kinase against immobilised ligand, qPCR read-out.
The target in the next assay is IRAK3 (Homo sapiens, UniProt Q9Y616). The assay can be described thus: biochemical. The note with it: read-out: Percent Control. Details: KINOMEscan competition binding, DNA-tagged kinase against immobilised ligand, qPCR read-out.
Assay [1] deals with T1, PIM2 (Homo sapiens, UniProt Q9P1W9). Put plainly: biochemical. Details: KINOMEscan competition binding, DNA-tagged kinase against immobilised ligand, qPCR read-out. The following applies: read-out: Percent Control.
Assay [2] concerns the target T1, PIM2. Put plainly: KINOMEscan competition binding ([…] kinases, […] IDX).
Assay [3] deals with T2, TBK1 (TANK-binding kinase 1) (Homo sapiens, UniProt Q9UHD2).
T2 construct: full-length human TBK1, expressed in Sf9, His tag removed by TEV
The assay can be described thus: surface plasmon resonance (Biacore T200, steady-state affinity). Background: Surface plasmon resonance follows binding to a sensor surface in real time, without labels.

Assay [4] concerns the target T3, DRAK1 (Homo sapiens, UniProt Q9UEE5).
T3 construct: gene STK17A
T3 sequence (Q9UEE5 1-414): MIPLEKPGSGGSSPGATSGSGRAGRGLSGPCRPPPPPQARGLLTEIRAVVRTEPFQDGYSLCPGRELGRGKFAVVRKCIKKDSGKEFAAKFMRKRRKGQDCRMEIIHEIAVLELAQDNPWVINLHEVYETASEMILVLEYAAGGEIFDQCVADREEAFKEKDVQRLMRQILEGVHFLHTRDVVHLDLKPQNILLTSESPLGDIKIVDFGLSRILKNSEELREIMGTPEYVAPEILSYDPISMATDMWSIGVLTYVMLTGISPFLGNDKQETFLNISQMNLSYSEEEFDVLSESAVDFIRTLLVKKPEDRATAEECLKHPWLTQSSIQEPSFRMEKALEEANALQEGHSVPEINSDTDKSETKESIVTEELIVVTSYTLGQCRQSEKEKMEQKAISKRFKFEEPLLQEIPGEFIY
Put plainly: biochemical. Details: KINOMEscan competition binding, DNA-tagged kinase against immobilised ligand, qPCR read-out. The following applies: read-out: Percent Control.

The next assay has as its target DYRK1B (Homo sapiens, UniProt Q9Y463). Put plainly: biochemical. The note with it: read-out: Percent Control.
The target of a further assay is LTK (Homo sapiens, UniProt P29376). Put plainly: biochemical. The note with it: read-out: Percent Control.
For assay [5], the target named is T3, DRAK1. The assay can be described thus: KINOMEscan competition binding ([…] kinases, […] IDX).

T1 sequence (Q9P1W9 whole entry): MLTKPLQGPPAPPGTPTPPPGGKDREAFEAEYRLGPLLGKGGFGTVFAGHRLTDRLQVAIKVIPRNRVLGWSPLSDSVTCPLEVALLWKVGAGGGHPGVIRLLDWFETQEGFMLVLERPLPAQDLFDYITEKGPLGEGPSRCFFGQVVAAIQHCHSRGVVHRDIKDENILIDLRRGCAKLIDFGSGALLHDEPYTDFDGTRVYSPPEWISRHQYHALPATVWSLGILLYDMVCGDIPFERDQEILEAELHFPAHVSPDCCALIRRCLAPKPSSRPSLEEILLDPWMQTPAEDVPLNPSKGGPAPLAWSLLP
Chain of IRAK3 (Q9Y616 whole entry): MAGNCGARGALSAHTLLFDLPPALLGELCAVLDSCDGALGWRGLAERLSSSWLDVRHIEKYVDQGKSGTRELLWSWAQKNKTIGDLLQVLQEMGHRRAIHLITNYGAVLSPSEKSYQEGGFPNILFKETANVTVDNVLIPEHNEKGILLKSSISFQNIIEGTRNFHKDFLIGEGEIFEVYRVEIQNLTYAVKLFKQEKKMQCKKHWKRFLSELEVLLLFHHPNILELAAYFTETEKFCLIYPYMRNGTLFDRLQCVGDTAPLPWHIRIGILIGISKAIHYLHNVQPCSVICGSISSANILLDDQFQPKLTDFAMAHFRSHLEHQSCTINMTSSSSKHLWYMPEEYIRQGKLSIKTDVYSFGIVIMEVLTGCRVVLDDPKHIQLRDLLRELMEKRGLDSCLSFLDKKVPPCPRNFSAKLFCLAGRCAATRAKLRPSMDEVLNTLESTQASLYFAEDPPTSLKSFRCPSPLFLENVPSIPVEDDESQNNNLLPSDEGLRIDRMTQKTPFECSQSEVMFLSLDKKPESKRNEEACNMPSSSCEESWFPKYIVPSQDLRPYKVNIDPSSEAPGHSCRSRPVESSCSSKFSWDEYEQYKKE
T2 sequence (Q9UHD2 whole entry): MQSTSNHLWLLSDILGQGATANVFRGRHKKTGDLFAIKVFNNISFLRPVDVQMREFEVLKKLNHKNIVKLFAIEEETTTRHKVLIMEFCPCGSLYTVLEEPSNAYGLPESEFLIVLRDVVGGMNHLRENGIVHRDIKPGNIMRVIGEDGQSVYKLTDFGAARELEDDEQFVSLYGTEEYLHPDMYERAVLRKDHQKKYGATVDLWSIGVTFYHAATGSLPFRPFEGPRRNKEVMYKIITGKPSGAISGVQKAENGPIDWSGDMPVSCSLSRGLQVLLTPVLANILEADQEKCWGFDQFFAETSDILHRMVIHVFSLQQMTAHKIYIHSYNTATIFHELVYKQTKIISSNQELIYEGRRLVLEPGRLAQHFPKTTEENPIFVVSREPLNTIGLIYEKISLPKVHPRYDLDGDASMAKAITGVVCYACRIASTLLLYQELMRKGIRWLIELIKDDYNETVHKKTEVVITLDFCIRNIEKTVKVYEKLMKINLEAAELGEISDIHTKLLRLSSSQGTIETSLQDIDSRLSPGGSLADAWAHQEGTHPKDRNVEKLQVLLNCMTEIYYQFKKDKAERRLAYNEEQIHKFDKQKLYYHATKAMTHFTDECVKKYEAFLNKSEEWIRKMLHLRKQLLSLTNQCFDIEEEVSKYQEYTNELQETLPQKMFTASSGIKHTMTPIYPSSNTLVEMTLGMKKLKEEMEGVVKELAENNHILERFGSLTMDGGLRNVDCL
Chain of DYRK1B (Q9Y463 whole entry): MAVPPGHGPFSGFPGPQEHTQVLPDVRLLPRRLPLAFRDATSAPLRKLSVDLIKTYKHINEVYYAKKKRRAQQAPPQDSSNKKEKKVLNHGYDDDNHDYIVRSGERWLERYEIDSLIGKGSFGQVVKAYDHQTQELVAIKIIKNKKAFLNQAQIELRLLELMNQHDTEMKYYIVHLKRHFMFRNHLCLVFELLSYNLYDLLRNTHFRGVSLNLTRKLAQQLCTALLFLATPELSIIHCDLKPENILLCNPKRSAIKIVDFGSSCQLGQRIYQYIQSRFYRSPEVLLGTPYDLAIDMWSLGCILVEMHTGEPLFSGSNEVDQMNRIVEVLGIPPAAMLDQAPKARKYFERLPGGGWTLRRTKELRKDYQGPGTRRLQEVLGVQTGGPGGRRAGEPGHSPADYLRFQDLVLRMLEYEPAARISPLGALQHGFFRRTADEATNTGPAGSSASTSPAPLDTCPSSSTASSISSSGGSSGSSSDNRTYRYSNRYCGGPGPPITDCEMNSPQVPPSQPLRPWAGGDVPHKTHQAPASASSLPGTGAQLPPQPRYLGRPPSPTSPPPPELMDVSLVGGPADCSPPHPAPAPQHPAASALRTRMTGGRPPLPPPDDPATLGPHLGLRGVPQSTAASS
Chain of PAK1 (Q13153 whole entry): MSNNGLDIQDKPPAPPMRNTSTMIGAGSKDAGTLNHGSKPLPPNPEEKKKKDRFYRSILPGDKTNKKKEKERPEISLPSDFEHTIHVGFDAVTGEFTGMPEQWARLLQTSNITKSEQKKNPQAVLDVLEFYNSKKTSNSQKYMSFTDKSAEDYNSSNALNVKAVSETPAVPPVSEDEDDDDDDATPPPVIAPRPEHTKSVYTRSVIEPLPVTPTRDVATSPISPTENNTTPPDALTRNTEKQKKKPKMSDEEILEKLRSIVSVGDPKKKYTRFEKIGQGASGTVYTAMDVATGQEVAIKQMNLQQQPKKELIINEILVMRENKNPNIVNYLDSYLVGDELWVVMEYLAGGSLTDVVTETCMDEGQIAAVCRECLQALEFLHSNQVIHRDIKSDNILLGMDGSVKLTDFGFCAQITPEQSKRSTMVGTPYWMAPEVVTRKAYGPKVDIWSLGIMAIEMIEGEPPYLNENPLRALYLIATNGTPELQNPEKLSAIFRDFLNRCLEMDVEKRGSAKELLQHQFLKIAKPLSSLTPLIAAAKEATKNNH
Chain of IRAK1 (P51617 whole entry): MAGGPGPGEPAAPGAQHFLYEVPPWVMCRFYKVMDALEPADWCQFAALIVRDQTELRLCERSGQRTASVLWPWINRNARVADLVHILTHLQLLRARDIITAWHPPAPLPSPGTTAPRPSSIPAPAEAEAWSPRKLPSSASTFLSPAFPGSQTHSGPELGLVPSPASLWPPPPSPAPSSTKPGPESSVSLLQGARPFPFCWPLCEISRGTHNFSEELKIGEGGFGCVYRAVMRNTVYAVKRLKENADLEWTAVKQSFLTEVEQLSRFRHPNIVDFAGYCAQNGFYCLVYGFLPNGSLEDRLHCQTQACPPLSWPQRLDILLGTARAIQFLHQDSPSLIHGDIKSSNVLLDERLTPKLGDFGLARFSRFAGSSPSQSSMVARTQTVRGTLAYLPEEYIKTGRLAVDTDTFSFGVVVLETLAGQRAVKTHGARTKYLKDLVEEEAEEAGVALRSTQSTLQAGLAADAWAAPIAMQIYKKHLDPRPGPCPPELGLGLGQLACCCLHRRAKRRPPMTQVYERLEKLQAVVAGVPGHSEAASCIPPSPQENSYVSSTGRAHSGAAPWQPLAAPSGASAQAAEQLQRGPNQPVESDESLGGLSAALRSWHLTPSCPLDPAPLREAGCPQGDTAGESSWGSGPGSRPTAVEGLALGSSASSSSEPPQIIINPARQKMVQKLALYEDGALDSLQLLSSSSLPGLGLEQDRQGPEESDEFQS
Chain of ITK (Q08881 whole entry): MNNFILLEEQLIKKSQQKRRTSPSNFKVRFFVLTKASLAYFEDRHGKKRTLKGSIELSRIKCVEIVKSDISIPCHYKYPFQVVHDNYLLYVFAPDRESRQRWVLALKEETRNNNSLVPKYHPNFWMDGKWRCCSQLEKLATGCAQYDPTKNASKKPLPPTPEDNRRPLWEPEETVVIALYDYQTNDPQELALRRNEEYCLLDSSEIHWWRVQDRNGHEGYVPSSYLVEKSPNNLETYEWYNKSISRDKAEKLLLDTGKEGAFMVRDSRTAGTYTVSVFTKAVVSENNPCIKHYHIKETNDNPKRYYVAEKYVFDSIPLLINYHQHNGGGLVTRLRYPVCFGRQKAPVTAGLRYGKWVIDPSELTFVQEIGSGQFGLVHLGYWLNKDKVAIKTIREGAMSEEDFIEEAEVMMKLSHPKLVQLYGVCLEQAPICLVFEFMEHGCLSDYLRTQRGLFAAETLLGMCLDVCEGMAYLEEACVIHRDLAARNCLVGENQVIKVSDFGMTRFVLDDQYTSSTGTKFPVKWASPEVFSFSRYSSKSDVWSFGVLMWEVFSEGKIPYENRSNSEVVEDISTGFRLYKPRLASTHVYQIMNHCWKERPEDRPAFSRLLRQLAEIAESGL
Chain of TEC (P42680 whole entry): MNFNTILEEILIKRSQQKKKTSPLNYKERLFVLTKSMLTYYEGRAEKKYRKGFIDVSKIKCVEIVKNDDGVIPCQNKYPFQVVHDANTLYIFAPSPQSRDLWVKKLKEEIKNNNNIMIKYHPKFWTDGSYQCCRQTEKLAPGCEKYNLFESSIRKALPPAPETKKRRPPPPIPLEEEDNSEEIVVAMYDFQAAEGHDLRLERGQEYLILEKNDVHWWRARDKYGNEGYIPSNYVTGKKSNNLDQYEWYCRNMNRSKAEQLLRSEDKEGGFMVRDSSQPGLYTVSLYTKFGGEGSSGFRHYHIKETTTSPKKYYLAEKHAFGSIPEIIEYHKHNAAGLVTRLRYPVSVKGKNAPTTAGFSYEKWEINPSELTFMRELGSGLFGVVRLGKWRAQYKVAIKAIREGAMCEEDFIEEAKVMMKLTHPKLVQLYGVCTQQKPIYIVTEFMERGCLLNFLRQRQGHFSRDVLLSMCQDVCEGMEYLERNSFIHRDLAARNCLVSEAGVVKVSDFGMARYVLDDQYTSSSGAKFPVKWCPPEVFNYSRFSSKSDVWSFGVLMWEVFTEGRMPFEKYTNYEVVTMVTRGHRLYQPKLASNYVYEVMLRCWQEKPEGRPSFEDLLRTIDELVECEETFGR

Broadly, the Kd is the free concentration of one partner at which half of the binding sites on the other are occupied at equilibrium, for simple one-to-one binding. Take `Oc1ccc(C2=Cc3ccc(O)cc3OC2)cc1` [compound 1, idronoxil]: the remaining binding at 10 µM was determined as 86% at TLK2; 93% at TEC; 97% at ITK; 80% at IRAK1; 92% on DCLK3; 60% at PAK1. Further, the values for the remaining binding at 10 µM on IRAK3, on PIM2 [1] and on DRAK1 [4] were 77%, 2.6% and 4.3%, respectively. The “KINOMEscan competition binding (403 kinases, 10 μM IDX)” value at PIM2 [2] is “broadly a poor kinase inhibitor, only binding its top two targets (PIM2 and DRAK1) in the micromolar range”; at DRAK1 [5], “broadly a poor kinase inhibitor, only binding its top two targets (PIM2 and DRAK1) in the micromolar range”. The same molecule had a Kd in [3] of 39.2 µM. The figures for the remaining activity at 10 µM on DYRK1B and on LTK were 27% and 95%, respectively.
